Measurements taken from the supplement of paper PMC12463676, “Small-molecule dissolution of stress granules by redox modulation benefits ALS models” (Nature Chemical Biology, 2025).

Assays:
potassium arsenate = compound: O=[As]([O-])(O)O.[K+] [potassium arsenate]; assay: thermal stability z-score vs DMSO; higher = more thermally stabilized by treatment; details: HeLa; arsenate concentration 1 mM
Procedure: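 Cellular thermal proteome profiling in HeLa cells treated with 1 mM arsenate for 1 h (DMSO pretreatment), heated to ten temperatures (37-66.3 °C). Soluble protein was quantified by TMT mass spectrometry relative to DMSO controls; the thermal stability score was transformed to a z-score; mean of n = 3 experiments.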

lipoamide = compound: NC(=O)CCCCC1CCSS1 [lipoamide]; assay: as above; details: HeLa, lipoamide concentration 100 µM
Procedure: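 Cellular thermal proteome profiling in HeLa cells. Cells were treated with 100 µM lipoamide for 1 h, with or without 1 mM arsenate for a further 1 h, then heated to ten temperatures (37-66.3 °C), and soluble protein was quantified by TMT mass spectrometry relative to 0.1% DMSO controls. The thermal stability score (sum of log2 fold changes minus the abundance score) was transformed to a z-score; mean of n = 3 experiments.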

[1] = arsenate co-treatment: 1 mM arsenate 1 h
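Note: each temperature applied for 3 min, abundance score taken as mean log2 fold change at the two lowest temperatures, z-score obtained by mean subtraction and division by SD.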

Sequence of UniProt Q15257 (Q15257 whole entry): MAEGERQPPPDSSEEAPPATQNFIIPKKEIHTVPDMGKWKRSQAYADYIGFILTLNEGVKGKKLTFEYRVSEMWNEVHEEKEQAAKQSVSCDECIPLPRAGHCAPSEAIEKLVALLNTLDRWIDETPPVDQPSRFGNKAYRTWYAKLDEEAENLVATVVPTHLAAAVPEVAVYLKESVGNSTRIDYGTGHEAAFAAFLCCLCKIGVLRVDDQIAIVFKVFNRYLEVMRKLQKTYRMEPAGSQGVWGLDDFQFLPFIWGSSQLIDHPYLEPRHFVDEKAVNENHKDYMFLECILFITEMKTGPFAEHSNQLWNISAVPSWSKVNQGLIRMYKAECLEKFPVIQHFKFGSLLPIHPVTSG
Sequence of UniProt Q8TF01 (Q8TF01 whole entry): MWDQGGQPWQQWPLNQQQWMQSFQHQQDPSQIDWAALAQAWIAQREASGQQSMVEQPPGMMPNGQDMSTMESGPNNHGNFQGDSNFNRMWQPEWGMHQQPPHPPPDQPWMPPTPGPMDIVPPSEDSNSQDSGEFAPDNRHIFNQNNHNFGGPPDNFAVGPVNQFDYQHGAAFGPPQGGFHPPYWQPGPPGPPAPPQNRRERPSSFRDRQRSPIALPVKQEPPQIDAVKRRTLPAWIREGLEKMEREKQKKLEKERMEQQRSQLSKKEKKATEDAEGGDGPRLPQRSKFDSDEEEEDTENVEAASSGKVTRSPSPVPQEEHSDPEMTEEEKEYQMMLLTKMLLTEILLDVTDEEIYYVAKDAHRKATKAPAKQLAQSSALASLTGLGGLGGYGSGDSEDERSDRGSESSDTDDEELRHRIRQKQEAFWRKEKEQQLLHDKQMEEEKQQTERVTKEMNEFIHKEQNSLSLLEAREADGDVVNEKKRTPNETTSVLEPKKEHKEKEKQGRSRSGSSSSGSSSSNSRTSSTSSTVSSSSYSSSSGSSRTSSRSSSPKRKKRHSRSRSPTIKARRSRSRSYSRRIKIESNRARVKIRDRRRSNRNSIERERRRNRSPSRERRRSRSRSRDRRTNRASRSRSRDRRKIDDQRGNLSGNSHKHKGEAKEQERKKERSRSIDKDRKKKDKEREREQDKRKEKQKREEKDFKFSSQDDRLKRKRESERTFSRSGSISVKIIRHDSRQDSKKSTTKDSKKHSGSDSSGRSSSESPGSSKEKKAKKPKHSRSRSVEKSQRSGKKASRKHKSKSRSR
Sequence of UniProt Q3MHD2 (Q3MHD2 whole entry): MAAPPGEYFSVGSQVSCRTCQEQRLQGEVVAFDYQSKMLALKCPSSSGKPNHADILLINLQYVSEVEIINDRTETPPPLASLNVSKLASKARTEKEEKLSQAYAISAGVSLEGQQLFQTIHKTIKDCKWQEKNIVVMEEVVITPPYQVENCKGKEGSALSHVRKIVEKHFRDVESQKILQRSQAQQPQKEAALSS
Sequence of UniProt Q13416 (Q13416 whole entry): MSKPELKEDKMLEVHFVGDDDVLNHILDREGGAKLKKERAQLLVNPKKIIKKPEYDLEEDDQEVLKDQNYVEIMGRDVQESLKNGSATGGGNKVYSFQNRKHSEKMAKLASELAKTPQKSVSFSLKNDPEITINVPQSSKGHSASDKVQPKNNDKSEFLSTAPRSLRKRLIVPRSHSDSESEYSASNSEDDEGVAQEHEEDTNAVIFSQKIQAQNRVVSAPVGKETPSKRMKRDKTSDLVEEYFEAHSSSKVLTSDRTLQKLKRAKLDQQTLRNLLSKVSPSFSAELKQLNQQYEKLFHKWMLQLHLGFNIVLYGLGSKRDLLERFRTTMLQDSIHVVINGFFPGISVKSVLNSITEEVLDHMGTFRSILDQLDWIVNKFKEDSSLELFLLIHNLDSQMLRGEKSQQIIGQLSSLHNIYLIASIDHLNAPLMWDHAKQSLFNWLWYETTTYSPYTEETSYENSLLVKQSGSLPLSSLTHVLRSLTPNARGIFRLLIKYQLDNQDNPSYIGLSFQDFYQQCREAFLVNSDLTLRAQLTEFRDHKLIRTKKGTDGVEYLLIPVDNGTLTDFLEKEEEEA
Sequence of UniProt Q7RTV0 (Q7RTV0 whole entry, looked up): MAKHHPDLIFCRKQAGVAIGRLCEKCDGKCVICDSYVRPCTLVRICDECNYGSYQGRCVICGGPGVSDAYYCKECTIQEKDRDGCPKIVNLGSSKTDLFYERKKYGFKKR
Sequence of UniProt Q15646 (Q15646 whole entry): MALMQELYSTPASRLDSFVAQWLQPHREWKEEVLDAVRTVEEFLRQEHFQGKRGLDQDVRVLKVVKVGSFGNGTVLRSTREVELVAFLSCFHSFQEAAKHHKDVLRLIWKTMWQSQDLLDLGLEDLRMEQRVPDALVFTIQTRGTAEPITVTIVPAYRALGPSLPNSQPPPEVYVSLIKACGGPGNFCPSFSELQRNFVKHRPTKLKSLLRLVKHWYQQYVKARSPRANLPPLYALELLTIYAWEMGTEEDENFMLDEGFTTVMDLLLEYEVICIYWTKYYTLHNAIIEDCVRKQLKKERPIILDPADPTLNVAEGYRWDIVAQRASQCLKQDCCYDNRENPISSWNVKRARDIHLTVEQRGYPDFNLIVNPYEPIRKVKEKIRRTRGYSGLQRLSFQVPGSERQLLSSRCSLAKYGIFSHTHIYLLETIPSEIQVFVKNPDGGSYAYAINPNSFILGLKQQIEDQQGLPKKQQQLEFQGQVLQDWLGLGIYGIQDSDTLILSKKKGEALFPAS
Sequence of UniProt Q99470 (Q99470 whole entry): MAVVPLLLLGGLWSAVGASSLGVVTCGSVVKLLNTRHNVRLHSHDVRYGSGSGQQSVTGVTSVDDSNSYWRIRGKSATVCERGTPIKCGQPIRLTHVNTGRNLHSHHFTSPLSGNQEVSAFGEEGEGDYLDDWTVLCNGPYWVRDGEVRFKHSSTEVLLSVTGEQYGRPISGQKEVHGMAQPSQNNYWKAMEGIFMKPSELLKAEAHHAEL
Sequence of UniProt A7E2V4 (A7E2V4 whole entry): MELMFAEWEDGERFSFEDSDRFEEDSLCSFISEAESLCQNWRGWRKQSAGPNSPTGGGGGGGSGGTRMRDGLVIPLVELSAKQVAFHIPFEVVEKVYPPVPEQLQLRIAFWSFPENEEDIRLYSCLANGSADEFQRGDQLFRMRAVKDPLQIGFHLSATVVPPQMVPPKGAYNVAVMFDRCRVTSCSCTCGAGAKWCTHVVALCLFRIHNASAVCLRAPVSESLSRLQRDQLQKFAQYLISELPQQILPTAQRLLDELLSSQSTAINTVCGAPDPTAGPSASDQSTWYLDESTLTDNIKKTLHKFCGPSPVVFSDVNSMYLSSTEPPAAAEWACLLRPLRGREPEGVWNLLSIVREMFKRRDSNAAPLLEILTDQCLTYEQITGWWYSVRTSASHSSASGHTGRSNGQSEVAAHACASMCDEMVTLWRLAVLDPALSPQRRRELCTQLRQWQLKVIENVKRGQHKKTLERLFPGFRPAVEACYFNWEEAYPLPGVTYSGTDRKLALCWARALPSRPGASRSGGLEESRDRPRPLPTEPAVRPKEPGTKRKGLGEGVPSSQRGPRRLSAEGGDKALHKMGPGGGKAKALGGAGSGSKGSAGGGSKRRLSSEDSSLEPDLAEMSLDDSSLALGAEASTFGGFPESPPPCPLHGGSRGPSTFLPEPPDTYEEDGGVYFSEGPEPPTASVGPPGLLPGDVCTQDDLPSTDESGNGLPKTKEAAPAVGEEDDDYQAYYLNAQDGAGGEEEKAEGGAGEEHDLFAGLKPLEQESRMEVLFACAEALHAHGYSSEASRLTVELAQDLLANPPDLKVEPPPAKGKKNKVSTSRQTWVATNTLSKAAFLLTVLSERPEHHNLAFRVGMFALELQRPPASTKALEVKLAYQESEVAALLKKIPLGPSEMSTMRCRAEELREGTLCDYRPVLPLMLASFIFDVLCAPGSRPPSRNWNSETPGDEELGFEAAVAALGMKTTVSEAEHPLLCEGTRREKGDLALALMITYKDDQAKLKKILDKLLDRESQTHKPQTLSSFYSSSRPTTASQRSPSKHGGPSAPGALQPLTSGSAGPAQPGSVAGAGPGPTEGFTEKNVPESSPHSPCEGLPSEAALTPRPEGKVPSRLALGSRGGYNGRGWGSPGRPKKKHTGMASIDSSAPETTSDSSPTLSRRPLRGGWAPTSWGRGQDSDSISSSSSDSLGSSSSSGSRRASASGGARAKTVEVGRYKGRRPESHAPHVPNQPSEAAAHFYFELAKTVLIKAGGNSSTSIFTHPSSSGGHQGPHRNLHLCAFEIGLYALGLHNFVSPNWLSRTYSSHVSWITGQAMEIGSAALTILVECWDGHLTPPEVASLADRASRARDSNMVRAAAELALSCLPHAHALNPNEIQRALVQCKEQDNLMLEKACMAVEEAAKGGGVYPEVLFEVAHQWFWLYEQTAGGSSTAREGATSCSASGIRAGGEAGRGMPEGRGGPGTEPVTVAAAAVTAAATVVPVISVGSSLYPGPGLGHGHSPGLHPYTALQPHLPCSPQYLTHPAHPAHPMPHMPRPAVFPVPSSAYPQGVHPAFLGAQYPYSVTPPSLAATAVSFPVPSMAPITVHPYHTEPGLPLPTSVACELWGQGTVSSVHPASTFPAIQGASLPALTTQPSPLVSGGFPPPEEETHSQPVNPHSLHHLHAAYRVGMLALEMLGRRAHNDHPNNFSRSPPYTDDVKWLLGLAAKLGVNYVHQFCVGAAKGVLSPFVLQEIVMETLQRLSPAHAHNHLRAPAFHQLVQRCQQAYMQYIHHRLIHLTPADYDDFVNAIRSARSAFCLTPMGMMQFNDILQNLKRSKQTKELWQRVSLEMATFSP
Sequence of UniProt Q9NPF4 (Q9NPF4 whole entry): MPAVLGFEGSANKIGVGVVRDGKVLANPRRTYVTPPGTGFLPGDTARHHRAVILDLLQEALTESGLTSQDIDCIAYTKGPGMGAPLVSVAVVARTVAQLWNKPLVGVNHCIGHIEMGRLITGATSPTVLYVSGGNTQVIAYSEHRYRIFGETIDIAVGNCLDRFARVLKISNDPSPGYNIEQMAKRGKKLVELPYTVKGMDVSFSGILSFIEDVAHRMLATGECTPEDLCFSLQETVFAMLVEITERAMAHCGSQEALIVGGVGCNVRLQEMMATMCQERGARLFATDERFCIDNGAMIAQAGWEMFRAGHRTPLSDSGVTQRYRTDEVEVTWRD

| Target | thermal stability z-score (potassium arsenate) | thermal stability z-score (lipoamide; [1]) | thermal stability z-score (lipoamide; arsenate co-treatment: none) |
| --- | --- | --- | --- |
| MTA2 (UniProt O94776) | -0.245 | 0.669 | 0.591 |
| ARID4B (UniProt Q4LE39) | -0.419 | 0.0389 | 0.0738 |
| UBL7 (UniProt Q96S82) | 0.168 | 0.396 | 0.433 |
| PPP2R4 (UniProt Q15257) | -0.0643 | 0.108 | 0.233 |
| CEP78 (UniProt Q5JTW2) | -0.165 | -0.104 | -0.0338 |
| ABCF3 (UniProt Q9NUQ8) | 0.516 | -0.505 | -0.0312 |
| ATP2B1 (UniProt P20020) | -0.146 | 0.446 | 0.697 |
| PHF6 (UniProt Q8IWS0) | -3.52 | -0.33 | -0.552 |
| LSM12 (UniProt Q3MHD2) | -0.27 | -0.205 | 0.447 |
| RPL35A (UniProt P18077) | -0.477 | 0.893 | 0.484 |
| DOCK10 (UniProt Q96BY6) | 0.0405 | -0.106 | -0.259 |
| LSS (UniProt P48449) | -0.00616 | 0.724 | 0.345 |
| SDF2 (UniProt Q99470) | 0.21 | -3.1 | -2.94 |
| GDPD3 (UniProt Q7L5L3) | 0.114 | 0.187 | -0.422 |
| CLIC1 (UniProt O00299) | -0.144 | 0.85 | 0.348 |
| ORC2 (UniProt Q13416) | 0.0824 | 0.0753 | 0.0589 |
| TMEM65 (UniProt Q6PI78) | 0.128 | -0.379 | -0.204 |
| TMEM109 (UniProt Q9BVC6) | 0.115 | 0.0915 | 0.27 |

| Target | thermal stability z-score (potassium arsenate) | thermal stability z-score (lipoamide; [1]) | thermal stability z-score (lipoamide; arsenate co-treatment: none) |
| --- | --- | --- | --- |
| GNAQ (UniProt P50148) | -1.39 | -0.312 | 0.15 |
| PHF5A (UniProt Q7RTV0) | -5.28 | 0.703 | 0.339 |
| CPNE8 (UniProt Q86YQ8) | -0.648 | 0.773 | 1.11 |
| VPS13B (UniProt Q7Z7G8) | -0.168 | 0.291 | 0.491 |
| EIF3D (UniProt O15371) | -0.0622 | -0.0633 | 0.0556 |
| NCBP1 (UniProt Q09161) | -0.0646 | 0.353 | 0.393 |
| ZNF326 (UniProt Q5BKZ1) | 0.0996 | -0.0719 | 0.0989 |
| PNISR (UniProt Q8TF01) | -0.509 | 1.06 | 0.149 |
| OSGEP (UniProt Q9NPF4) | -0.208 | -0.0754 | 0.487 |
| EHD4 (UniProt Q9H223) | -0.477 | 0.435 | 0.326 |
| COMMD5 (UniProt Q9GZQ3) | 0.0506 | -0.212 | 0.573 |
| OASL (UniProt Q15646) | -0.307 | -0.147 | -0.0704 |
| TIMELESS (UniProt Q9UNS1) | -0.498 | -0.244 | -0.0831 |
| GPHN (UniProt Q9NQX3) | -0.949 | -0.406 | -0.149 |
| DUSP9 (UniProt Q99956) | 0.0461 | 0.738 | 0.0584 |
| TSC22D2 (UniProt O75157) | 1.16 | 1.54 | 0.0633 |
| HENMT1 (UniProt Q5T8I9) | 0.197 | -0.37 | -0.0316 |
| ZSWIM8 (UniProt A7E2V4) | -0.0789 | 0.028 | 0.0796 |
